Laboratory results: patent publication US9079913B2, “Spiro-oxindole MDM2 antagonists” (The Regents of the University of Michigan, priority 2009, dated 2015)
Several values for one entry are separate records, joined by “and”; a condition that tells them apart may be missing. Identical values can stand only once.

Experiments:
[1] = Pharmacokinetic studies in Beagle dogs; assay type: in vivo
[2] = Pharmacokinetic studies in Cynomolgus monkeys; assay type: in vivo; conditions: for AUC(0-t): animals and MEAN
[3] = Pharmacokinetic studies in ICR mice; assay type: in vivo; set-up: Measured concentrations in the plasma samples: unit not given here; conditions: for Measured concentrations in the plasma samples: single i.v. dose 10 mg/kg; for Plasma Concentrations: single p.o dose 50 mg/kg
SJSA-1 xenograft tumors = assay: In vivo efficacy, SJSA-1 xenograft model (tumor volume); set-up: species or system C.B-17 SCID mice; conditions: PO 300 mg/kg
Method: SJSA-1 tumor cells were harvested with Trypsin (0.05%)-EDTA (0.53 mM) (GIBCO™, Invitrogen Corp.), growth medium added and cells placed on ice. A cell sample was mixed 1:1 with Trypan Blue (GIBCO™, Invitrogen Corp.) and counted on a hemocytometer to determine the number of live/dead cells. Cells were washed once with 1×PBS (GIBCO™, Invitrogen Corp.) and resuspended in PBS. For Matrigel injections, after washing in PBS, cells are resuspended in an ice cold mixture of 1:1 PBS and Matrigel (BD Biosciences, Invitrogen Corp.) for a final Matrigel protein concentration of 5 mg/ml. SJSA-1 tumors were inoculated into C.B-17 SCID mice at 5×10^6 cells in 0.1 ml with Matrigel. Cells were injected s.c. into the flank region of each mouse using a 27 gauge needle.
The size of tumors growing in the mice was measured in two dimensions using calipers. Tumor volume (mm^3)=(A×B2)/2 where A and B are the tumor length and width (in mm), respectively. During treatment, tumor volume and body weight was measured three times a week. […] Mice were kept for an additional 60 days for further observation of tumor growth and toxicity.
Mice with tumors within acceptable size range were randomized into treatment groups of 8 mice for experimental compounds and 10 mice for the Control group. Experimental compounds were given orally, once per day for 2-3 weeks.

[4] = male Cynomolgus monkeys, IV (10 mg/kg)
[5] = male Cynomolgus monkeys, IV (10 mg/kg), mean
[6] = male Cynomolgus monkeys, Oral (50 mg/kg)
[7] = male Cynomolgus monkeys, Oral (50 mg/kg), mean

## MI-219
[1]
  oral bioavailability in dogs (in words): orally bioavailable
[1]; 10 mg/kg oral dosing
  AUC: 7947 ± 2396 ng·h/mL
[1]; IV 2.0 mg/kg
  MRT: 1.22 h and 1.81 h and 1.87 h
[1]; IV 2.0 mg/kg, 0.117 h, dogs and Mean
  Plasma Concentration: 4069 ng/mL and 7668 ng/mL
[1]; IV 2.0 mg/kg, 0.117 h, dogs and Mean, mean
  Plasma Concentration: 5868 ng/mL
[1]; IV 2.0 mg/kg, 0.20 h
  Plasma Concentration: 2623 ng/mL and 2272 ng/mL and 3918 ng/mL
[1]; IV 2.0 mg/kg, 0.20 h, mean
  Plasma Concentration: 2938 ng/mL
[1]; IV 2.0 mg/kg, 0.5 h
  Plasma Concentration: 1888 ng/mL and 1192 ng/mL and 1795 ng/mL
[1]; IV 2.0 mg/kg, 0.5 h, mean
  Plasma Concentration: 1625 ng/mL
[1]; IV 2.0 mg/kg, 1.0 h
  Plasma Concentration: 853 ng/mL and 704 ng/mL and 1044 ng/mL
[1]; IV 2.0 mg/kg, 1.0 h, mean
  Plasma Concentration: 867 ng/mL
[1]; IV 2.0 mg/kg, 3.0 h
  Plasma Concentration: 331 ng/mL and 402 ng/mL
[1]; IV 2.0 mg/kg, 3.0 h, mean
  Plasma Concentration: 367 ng/mL
[1]; IV 2.0 mg/kg, 4.0 h
  Plasma Concentration: 256 ng/mL and 188 ng/mL and 248 ng/mL
[1]; IV 2.0 mg/kg, 4.0 h, mean
  Plasma Concentration: 231 ng/mL
[1]; IV 2.0 mg/kg, 6.0 h
  Plasma Concentration: 114.3 ng/mL and 81.1 ng/mL and 119 ng/mL
[1]; IV 2.0 mg/kg, 6.0 h, mean
  Plasma Concentration: 105 ng/mL
[1]; IV 2.0 mg/kg, 8.0 h
  Plasma Concentration: 52.2 ng/mL and 39.7 ng/mL and 57.8 ng/mL
[1]; IV 2.0 mg/kg, 8.0 h, mean
  Plasma Concentration: 49.9 ng/mL
[1]; IV 2.0 mg/kg, 12 h
  Plasma Concentration: 17.9 ng/mL and 9.75 ng/mL and 19.4 ng/mL
[1]; IV 2.0 mg/kg, 12 h, mean
  Plasma Concentration: 15.7 ng/mL
[1]; IV 2.0 mg/kg, dogs and Mean
  T½: 4.32 h and 3.00 h and 4.36 h
[1]; IV 2.0 mg/kg, dogs and Mean, mean
  T½: 3.90 h
[1]; IV 2.0 mg/kg, mean
  MRT: 1.63 h
[1]; PO 10 mg/kg
  AUC(0-t): 9665 ng·h/mL and 5210 ng·h/mL and 8967 ng·h/mL
  AUC(0-∞): 9681 ng·h/mL and 5226 ng·h/mL and 8985 ng·h/mL
  Cmax: 3001 ng/mL and 3560 ng/mL and 2119 ng/mL and 3323 ng/mL
  F: 26.1% and 26.8% and 28.6%
  MRT: 3.09 h and 2.71 h and 3.33 h
  Tmax: 0.83 h and 1.0 h and 0.5 h
[1]; PO 10 mg/kg, 0.5 h, dogs and Mean
  Plasma Concentration: 2101 ng/mL and 1842 ng/mL and 3323 ng/mL
[1]; PO 10 mg/kg, 0.5 h, dogs and Mean, mean
  Plasma Concentration: 2422 ng/mL
[1]; PO 10 mg/kg, 1 h
  Plasma Concentration: 3560 ng/mL and 2119 ng/mL and 2999 ng/mL
[1]; PO 10 mg/kg, 1 h, mean
  Plasma Concentration: 2893 ng/mL
[1]; PO 10 mg/kg, 4 h
  Plasma Concentration: 483 ng/mL and 603 ng/mL and 312 ng/mL and 535 ng/mL
[1]; PO 10 mg/kg, 24 h
  Plasma Concentration: 4.05 ng/mL and 3.78 ng/mL and 4.48 ng/mL
[1]; PO 10 mg/kg, 24 h, mean
  Plasma Concentration: 4.10 ng/mL
[1]; PO 10 mg/kg, dogs and Mean
  T½: 2.77 h and 3.03 h and 2.81 h
[1]; PO 10 mg/kg, dogs and Mean, mean
  T½: 2.87 h
[1]; PO 10 mg/kg, mean
  AUC(0-t): 7947 ng·h/mL
  AUC(0-∞): 7964 ng·h/mL
  MRT: 3.04 h
[2]; Cynomolgus Monkeys
  oral bioavailability in monkeys (in words): orally bioavailable
[2]; male Cynomolgus monkeys, IV 10 mg/kg, time point 0.083, animals and Mean
  Plasma Concentration: 15043.60 ng/mL and 18669.25 ng/mL
[2]; male Cynomolgus monkeys, IV 10 mg/kg, time point 0.083, animals and Mean, mean
  Plasma Concentration: 16856.43 ng/mL
[2]; male Cynomolgus monkeys, IV 10 mg/kg, time point 0.1
  Plasma Concentration: 18416.30 ng/mL
[2]; male Cynomolgus monkeys, IV 10 mg/kg, time point 0.25
  Plasma Concentration: 4144.21 ng/mL and 4818.06 ng/mL and 6877.15 ng/mL
[2]; male Cynomolgus monkeys, IV 10 mg/kg, time point 0.25, mean
  Plasma Concentration: 5279.81 ng/mL
[2]; male Cynomolgus monkeys, IV 10 mg/kg, time point 0.5
  Plasma Concentration: 2188.67 ng/mL and 3577.55 ng/mL and 3536.46 ng/mL
[2]; male Cynomolgus monkeys, IV 10 mg/kg, time point 0.5, mean
  Plasma Concentration: 3100.89 ng/mL
[2]; male Cynomolgus monkeys, IV 10 mg/kg, time point 1
  Plasma Concentration: 1564.10 ng/mL and 2277.17 ng/mL and 2483.63 ng/mL
[2]; male Cynomolgus monkeys, IV 10 mg/kg, time point 1, mean
  Plasma Concentration: 2108.30 ng/mL
[2]; male Cynomolgus monkeys, IV 10 mg/kg, time point 2
  Plasma Concentration: 985.23 ng/mL and 1277.08 ng/mL and 1539.44 ng/mL
[2]; male Cynomolgus monkeys, IV 10 mg/kg, time point 2, mean
  Plasma Concentration: 1267.25 ng/mL
[2]; male Cynomolgus monkeys, IV 10 mg/kg, time point 3
  Plasma Concentration: 1230.40 ng/mL and 691.83 ng/mL and 834.00 ng/mL
[2]; male Cynomolgus monkeys, IV 10 mg/kg, time point 3, mean
  Plasma Concentration: 918.74 ng/mL
[2]; male Cynomolgus monkeys, IV 10 mg/kg, time point 4
  Plasma Concentration: 348.97 ng/mL and 582.63 ng/mL and 562.45 ng/mL
[2]; male Cynomolgus monkeys, IV 10 mg/kg, time point 4, mean
  Plasma Concentration: 498.02 ng/mL
[2]; male Cynomolgus monkeys, IV 10 mg/kg, time point 6
  Plasma Concentration: 246.12 ng/mL and 211.39 ng/mL and 324.99 ng/mL
[2]; male Cynomolgus monkeys, IV 10 mg/kg, time point 6, mean
  Plasma Concentration: 260.83 ng/mL
[2]; male Cynomolgus monkeys, IV 10 mg/kg, time point 8
  Plasma Concentration: 180.91 ng/mL and 115.94 ng/mL and 202.16 ng/mL
[2]; male Cynomolgus monkeys, IV 10 mg/kg, time point 8, mean
  Plasma Concentration: 166.34 ng/mL
[2]; male Cynomolgus monkeys, IV 10 mg/kg, time point 24
  Plasma Concentration: 5.91 ng/mL and 8.00 ng/mL and 8.34 ng/mL
[2]; male Cynomolgus monkeys, IV 10 mg/kg, time point 24, mean
  Plasma Concentration: 7.42 ng/mL
[2]; [4]
  AUC(0-∞): 11647.87 ng·h/mL and 13703.99 ng·h/mL and 10300.28 ng·h/mL
  CLz: 14.3 mL/min/kg and 12.2 mL/min/kg and 16.2 mL/min/kg
  Cmax: 18669.25 ng/mL and 18416.30 ng/mL and 15043.60 ng/mL
  MRT(0-∞): 2.12 h and 2.44 h and 2.68 h
  T1/2: 3.25 h and 3.43 h and 3.38 h
  Vz: 4.03 L/kg and 3.62 L/kg and 4.73 L/kg
  AUC(0-t): 11610.30 ng·h/mL and 13662.84 ng·h/mL and 10271.39 ng·h/mL
[2]; [5]
  AUC(0-t): 11848.18 ng·h/mL
  AUC(0-∞): 11884.05 ng·h/mL
  CLz: 14.2 mL/min/kg
  Cmax: 17376.38 ng/mL
  MRT(0-∞): 2.41 h
  T1/2: 3.35 h
  Vz: 4.12 L/kg
[2]; [6]
  MRT(0-∞): 6.25 h and 6.38 h and 5.57 h
  T1/2: 3.03 h and 2.52 h and 3.72 h
  Tmax: 4.00 h and 3.00 h and 3.33 h
[2]; [7]
  MRT(0-∞): 6.06 h
  T1/2: 3.09 h
[2]; male Cynomolgus monkeys, PO 50 mg/kg, time point 1
  Plasma Concentration: 192.53 ng/mL and 186.66 ng/mL and 241.02 ng/mL
[2]; male Cynomolgus monkeys, PO 50 mg/kg, time point 1, mean
  Plasma Concentration: 206.74 ng/mL
[3]; 50 mg/kg oral dosing
  AUC: 8469 ± 2381 ng·h/mL
[3]; p.o. 50 mg/kg
  AUC 0→9 h: 26839 ng·h/mL and 16158 ng·h/mL and 14622 ng·h/mL
  F: 76.7% and 46.2% and 41.8% and 54.9 ± 19.0%
  Kel: 0.37 and 0.69
  MRT: 2.5813 h and 2.043 h and 2.2585 h
  Tmax: 2 h
[3]; p.o. 50 mg/kg, groups and Mean ± SD
  Cmax: 10399 ng/mL and 9201 ng/mL and 9082 ng/mL and 9561 ± 728 ng/mL
[3]; p.o. 50 mg/kg, mean
  AUC 0→9 h: 19206 ± 6655 ng·h/mL
  Kel: 0.47 ± 0.19
  MRT: 2.29 ± 0.27 h
[3]; 5 min, groups and Mean ± SD, mean
  Measured concentrations in the plasma samples: 18041 ± 3799
[3]; 15 min, mean
  Measured concentrations in the plasma samples: 5823 ± 701
  Plasma Concentrations: 2043 ± 772 ng/mL
[3]; 30 min, mean
  Measured concentrations in the plasma samples: 3570 ± 871
[3]; 45 min, mean
  Measured concentrations in the plasma samples: 1731 ± 429
[3]; 1 h, mean
  Measured concentrations in the plasma samples: 1223 ± 141
[3]; 24 h
  Measured concentrations in the plasma samples: BLQ
  Plasma Concentrations: Beyond
[3]; 15 min
  Plasma Concentrations: 2927 ng/mL and 1700 ng/mL and 1503 ng/mL
[3]; 2 h
  Plasma Concentrations: 10399 ng/mL and 9201 ng/mL and 5808 ng/mL
[3]; 2 h, mean
  Plasma Concentrations: 8469 ± 2381 ng/mL
[3]; 5 h
  Plasma Concentrations: 522 ng/mL and 277 ng/mL and 334 ng/mL
[3]; 5 h, mean
  Plasma Concentrations: 378 ± 128 ng/mL
SJSA-1 xenograft tumors; Exp. No. 1, SJSA-1 xenograft, D27
  % Tumor Growth Inhib. T/C Control 750 mm^3 D27: 44.3%
SJSA-1 xenograft tumors; Exp. No. 2, SJSA-1 xenograft, D24
  % Tumor Growth Inhib. T/C Control 750 mm^3 D24: 30.1%
SJSA-1 xenograft tumors; Exp. No. 3, SJSA-1 xenograft, D29
  % Tumor Growth Inhib. T/C Control 750 mm^3 D29: 15.8%
